Consider one compound from patent US12208093B2 (THE JOHNS HOPKINS UNIVERSITY, priority 2016, dated 2025).

Series [1] relates to pp28-luciferase HCMV Towne. Briefly: Second cycle luciferase assay. The series is classed as cell-based, human cytomegalovirus (HCMV). The following applies: emetine 75 nM, vs infected control. The source says:
(§1) Cell culture, virus infection and anti-viral assays.

The next series relates to malaria. Particulars: 17 patients; 40 mg IM x 6 daily doses; cited from earlier work.
The test system of a further series is MDM2-IE2 interaction. Briefly: Co-immunoprecipitation of MDM2 and IE2 in transfected HEK293 cells. The series is classed as cell-based. The following applies: HEK293 cells transfected with IE1/2; emetine 75 nM or GCV 5 μM, 4 h. As for the experimental part:
Transient transfections. HEK-293 cells seeded into 10 cm petri dishes were transfected with HCMV plasmid encoding IE1 and IE2 (pRL45) plasmid, 1 μg/dish, using Lipofectamine 2000 in serum free medium. After 6 h, 10% FBS containing media was added along with 10 μM of MG132. […] Cells were then harvested to prepare lysates for IP.
(§2) Co-immunoprecipitation (IP) and immunoblotting. Non-infected, infected or emetine-treated HFFs were treated with MG132 (10 μM) for 12 h. Cells were harvested after 24 hpi and lysed with IP buffer containing 150 mM NaCl, 50 mM Tris pH 7.5, 2 mM EDTA, 0.5% TritonX-100 and 0.5% NP-40-40. 1 mg of lysate was precleared with bead slurry for 30 min. The precleared lysates were incubated with anti-MDM2 (2 μg) antibody overnight. The antibody complexes were isolated using protein A/G beads (Santa Cruz), washed three times with 50% IP buffer. The immunoprecipitate—protein A/G beads were boiled in SDS sample buffer, and the supernatant was analyzed on SDS-PAGE gels after immunoblotting as described previously. […] Reverse IPs were performed by pulling down the precleared lysates with either anti-p53 antibody or anti-RPS14 antibody and detected with MDM2. […] In other experiments, transfected or treated HEK293 cell lysates were pulled-down with anti-IE2 antibody and detected with anti-MDM2 antibody and vice-versa for reverse IP.

Series [2] deals with HSV-1 (luciferase HSV1-KOS/Dlux/oriS). In words: HSV-1 luciferase assay in HFFs. It is filed as cell-based, herpes simplex virus 1. Particulars: nM concentrations.
Description: as §1

The subject of series [3] is GCV-resistant pp28-luciferase HCMV (C607Y mutation in UL97). The following applies: nM concentrations.
Description: Viruses. The pp28-luciferase HCMV Towne strain was constructed as previously described. A GCV-resistant pp28-luciferase HCMV strain, with a C607Y mutation in UL97 was also used. The recombinant viruses express luciferase under the control of the late CMV gene promoter, pp28. Luciferase expression is strongly activated 48-72 hours post infection (hpi). The recombinant viruses provide a highly-sensitive and reproducible reporter system which correlates with the classic plaque reduction assay.
Cell culture, virus infection and anti-viral assays. Human Foreskin Fibroblasts (HFFs) passage 12-16 (ATCC, CRL-2088™) and mouse embryonic fibroblasts (MEFs) passage 9-14 (ATCC, CRL-1658™) were grown in Dulbecco's Modified Eagle Medium (DMEM) containing 10% fetal bovine serum (FBS) (Gibco, Carlsbad, CA) in a 5% CO2 incubator at 37° C. Infection with HCMV or HSV was performed in HFFs, and infection with mouse CMV was performed in MEFs. For HCMV, cells were seeded in either a 96-well plate or 100 mm culture plates (Corning Costar, Sigma Aldrich) at 0.5 or 2 million cells/plate. Following 90 minute adsorption, media was removed and cells were washed with PBS. Media containing 4% FBS and compounds were added to each well. […] Luciferase activity was measured 72 h following second cycle infection.
Series [4] can be described thus: Cell viability (MTT) assay. Particulars: human, non-infected HFFs.
The next series concerns the target T1, RPS14 and MDM2 (Homo sapiens, UniProt P62263+Q00987).
T1 construct: endogenous in cells; host or cells: Human foreskin fibroblasts (HFFs, ATCC CRL-2088), infected with HCMV Towne
In words: Co-immunoprecipitation of RPS14 and MDM2; RPS14 expression and ubiquitination. It is filed as cell-based.
Description: SDS-polyacrylamide gel electrophoresis and immunoblot analysis. Cell lysates were quantified for protein content using bicinchoninic acid (BCA) protein assay kit (Pierce Chemical, Rockford, IL). Equivalent amount of proteins were used for Western blot analysis as described previously. Protein bands were visualized by chemiluminescence using Western Blotting Luminol Reagent (Santa Cruz Biotechnology, Santa Cruz, CA). The following antibodies were used for detection of HCMV proteins: mouse anti-IE1 and IE2, (MAb810); mouse anti-UL44 (Santa Cruz biotechnology Santa Cruz, CA); mouse monoclonal anti-pp65 (Vector laboratories, Burlingame, CA); mouse monoclonal anti-β-actin antibody (Millipore, Billerica, MA); rabbit polyclonal anti-RPS14 and mouse monoclonal anti-MDM2 (AbCam, Cambridge, UK), mouse monoclonal anti-p53 (Santa Cruz, CA); horseradish peroxidase (HRP)-conjugated goat anti-rabbit IgG (Cell Signaling); and HRP-conjugated sheep anti-mouse IgG, (GE Healthcare, Waukesha, WI). For detection of co-immunoprecipitated proteins, protein A-HRP conjugate (Cell Signaling Technologies, Beverly, MA) was used as secondary antibody to eliminate the interfering IgG bands.
as §2, with “Cells were harvested after 24 hpi and lysed with IP buffer containing 150 mM NaCl, 50 mM Tris pH 7.5, 2 mM EDTA, 0.5% TritonX-100 and 0.5% NP-40-40.” left out

The next series has as its system MCMV. In words: MCMV infection model in BALB/c mice. The series is classed as in vivo, Murid Herpesvirus (MCMV) in BALB/c mice. The method, then: Control mice received 0.1 ml of saline intraperitoneally. […] Control and infected mice received equivalent volumes of saline. […] Mice were sacrificed at day 14 after infection. Blood samples were collected by cardiac puncture. […] Two million MEFs were seeded into 24 well plates. […] Plaques were counted after three days. […] The gB primers were: F: 5′ […] 3′ (SEQ ID NO:1); R: 5′ […] 3′(SEQ ID NO:2) (43).

Series [5] has as its system HSV-2 (clinical isolates). Briefly: HSV-2 plaque assay in HFFs. The series is classed as cell-based, herpes simplex virus 2. The following applies: nM concentrations.
Description: as §1

Series [6] deals with pp28-luciferase HCMV Towne. Briefly: microbe, parasite or virus in culture. The series is classed as cell-based, human cytomegalovirus (HCMV).
Description: A GCV-resistant pp28-luciferase HCMV strain, with a C607Y mutation in UL97 was also used. The recombinant viruses express luciferase under the control of the late CMV gene promoter, pp28. […] The recombinant viruses provide a highly-sensitive and reproducible reporter system which correlates with the classic plaque reduction assay. […] Human herpes virus strains were: luciferase HSV1-KOS/Dlux/oriS and clinical isolates of HSV2.
Cell culture, virus infection and anti-viral assays. […] Infection with HCMV or HSV was performed in HFFs, and infection with mouse CMV was performed in MEFs. For HCMV, cells were seeded in either a 96-well plate or 100 mm culture plates (Corning Costar, Sigma Aldrich) at 0.5 or 2 million cells/plate. Following 90 minute adsorption, media was removed and cells were washed with PBS. Media containing 4% FBS and compounds were added to each well. Infected treated HFFs were collected at 72 hpi and lysates were assayed for luciferase activity using a luciferase assay kit (Promega, Madison, WI) on GloMax®-Multi+Detection System (Promega). In second cycle assays, supernatants were collected from all conditions of the first cycle at 96 hpi and used for infection of fresh HFFs in 96-well-plates. […] For HSV1-KOS/Dlux/oriS, a luciferase assay was performed at 24 hpi. Plaque assays were performed with clinical isolates of HSV2 and HCMV Towne. […] Following virus adsorption (60 min and 90 min for HSV and HCMV, respectively), virus was aspirated, and DMEM containing 4% fetal bovine serum (FBS) with (for HSV) or without (for HCMV) 0.5% carboxymethyl-cellulose, were added with the compounds at indicated concentrations into triplicate wells. After incubation at 37° C. for 10 days (for HCMV) or 2 days (for HSV), the overlay was removed and plaques were counted after crystal violet staining.

Entries after “also recorded” stand apart in the source; their conditions may differ. Structures can show the parent of a compound that is named as a salt.

`CC[C@H]1CN2CCc3cc(OC)c(OC)cc3[C@@H]2C[C@@H]1C[C@H]1NCCc2cc(OC)c(OC)cc21` [emetine, emetine dihydrochloride hydrate]: the tolerability in mice entry is recorded as “well-tolerated”. For the same compound, the “increase in pp28-luciferase activity, second cycle infection” value in series [1] (0.5 million cells/plate, p>0.5) is given as 1.5 fold. For the same compound, the “reduction in pp28-luciferase activity, second cycle infection” value in [1] (1 million cells/plate, p<0.001) came to 1.5 fold. In addition, the “pp28-luciferase activity, second cycle infection” value in series [1] (2 million cells/plate, p<0.001) is on record as “almost complete inhibition”. Moreover, the treatment of malaria result with malaria is recorded as “successful treatment”. Besides, in the series on MDM2-IE2 interaction, the “interaction of MDM2 and IE2” value is on record as “significantly decreased”. In series [2], the “inhibition of HSV-1” value is “inhibited”. The “inhibition of GCV-resistant HCMV” value in series [3] is on record as “inhibited”. The CC50 (commonly the concentration that lowers cell viability or growth by half) at 72 h in series [4] is 8 µM. For the same compound, the “interaction between RPS14 and MDM2” value on RPS14 and MDM2 (24 hpi, contact-inhibited infected cells, not cycling cells, MG132 present) is listed as “strongly induced”. Further, the “HCMV-induced RPS14 expression” value on RPS14 and MDM2 (72 hpi, contact-inhibited infected cells, emetine 75 nM) is recorded as “reduced”. At RPS14 and MDM2 (72 hpi, only in contact-inhibited cells, MG132), the “ubiquitinated RPS14” value is reported as “increased”. Further, in the series with MCMV (oral every 72 h / three days, low dose 0.1 mg/kg, dihydrochloride hydrate, 0.1 mg/kg), the “MCMV inhibition in mice” value is listed as “inhibited; also recorded: high efficacy; also recorded: inhibits mouse CMV replication; also recorded: effectively suppressed MCMV”. For the same compound, the “difference in efficacy between 0.1 and 1 mg/kg” value in the series with MCMV (oral, every three days) is “no significant difference”. Also, the “inhibition of HSV-2” value in [5] is recorded as “inhibited”. In addition, the “HCMV inhibition in relation to cell density at time of infection” value in [6] (HFFs 0.5-2 million cells/plate, emetine 75 nM, GCV 5 μM) was “significant virus inhibition was observed only at higher cell density”. For the same compound, the EC50 (commonly the concentration at which the effect is half-maximal) in series [6] (Human betaherpesvirus 5, read-out: EC50 against HCMV) was found to be 0.04 µM. Further, in [6] (emetine 75 nM, 0.5 million cells/plate in 96-well plate), the “reduction in normalized luciferase activity at low cell density” value is “no significant reduction”. In addition, in series [6] (luciferase at 72 hpi), the “concentration that fully inhibits HCMV” value is given as 75 nM.
